Assay results: patent US9133143B2, “(3-fluoro-2-hydroxy)propyl-functionalized aryl derivatives or pharmaceutically acceptable salts thereof, method for preparing same, and pharmaceutical composition containing same as active ingredient for the diagnosis or treatment of neurodegenerative brain diseases” (FUTURECHEM CO., LTD., priority 2009, dated 2015)

Key:
[1] = Test of in vivo distribution of F-18-labeled compounds (concentration in brain, passage through blood-brain barrier); design: Concentration in brain of rats, At 2 minutes ([2 min]) / Concentration in brain of rats, At 30 minutes ([30 min]): unit not given here; conditions: SD rats; for Concentration in brain of rats, Highest ([peak]) / Time of highest concentration in brain (in parentheses): F-18-labeled compound; for Initial brain inflow: at 2 minutes; for [peak]/[30 min] / [2 min]/[30 min]: ratio of brain concentrations; for [2 min]/[30 min]: value smaller than 1 = cannot pass the blood-brain barrier well
Description: In order to test the passing of the aryl derivative with the (3-fluoro-2-hydroxy)propyl group according to the present disclosure through the blood-brain barrier, the following experiment was carried out.
After administering the F-18-labeled aryl derivatives prepared in Examples 10 to 13 or 2-(4-(N-monomethyl)aminophenyl)-6-(3-[^18F]fluoropropoxy)benzothiophene with no hydroxyl group, as control, to SD rats, peak concentration in the brain and concentrations at 2 minutes ([2 min]) and 30 minutes ([30 min]) were measured and pharmacokinetic properties were quantitatively compared.
A larger value indicates easier passage through the blood-brain barrier.

[2] = target: T1, β-Amyloid (Aβ1-42) fibrils (Homo sapiens, UniProt P05067); experiment: Test of inhibitory binding ability against [125I]TZDM on β-amyloid fibrils; conditions: Aβ1-42 fibrils 10 nM, [125I]TZDM 0.05 nM, room temperature 3 hours; read-out: Ki, binding affinity (Ki) for [125I]TZDM (48)
T1 construct: β-Amyloid peptide (Aβ1-42, Bachem, 1 mg); purchased Bachem
T1 sequence (P05067 672-713 limits assumed): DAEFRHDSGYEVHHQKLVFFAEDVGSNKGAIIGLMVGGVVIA
Description: β-Amyloid peptide (Aβ1-42, Bachem, 1 mg) was completely dissolved in DMSO (1 mL) and then mixed well after adding phosphate buffer (pH 7.4, 9 mL). β-Amyloid fibrils produced by incubating at 37° C. for 60 minutes were distributed into e-tubes, 0.5 mL each, and stored in a refrigerator at −80° C.
10% ethanol (0.850 mL) was placed in a 12 mm×75 mm borosilicate test tube. […] Then, after adding [^125I]TZDM (48) (50 μL, final reaction concentration=0.05 nM), the resulting mixture was subjected to incubation at room temperature for 3 hours. 3 Hours later, after separating [^125I]TZDM (48) bound to the β-amyloid (Aβ1-42) fibrils from unbound [^125I]TZDM (48) using a cell harvester, gamma radiation was measured using a gamma counter. 2 μM ThT was used for testing of non-specific binding.

Row | SMILES | Concentration in brain of rats, At 2 minutes ([2 min]) [1] | Concentration in brain of rats, At 30 minutes ([30 min]) [1] | Concentration in brain of rats, Highest ([peak]) [1] | Time of highest concentration in brain (in parentheses) [1] | [peak]/[30 min] [1] | Ki [2] | other results
1 | CNc1ccc(-c2cc3ccc(OCC(O)C[18F])cc3s2)cn1 (racemic) [Example 10, 2-[2-(N-monomethyl)aminopyridin-5-yl]-6-[(R/S)-3-[^18F]fluoro-2-hydroxypropoxy]benzothiophene] | 16.5 | 2.2 | 22.4 | 30 s | 10.3 |  | [2 min]/[30 min] value relative to that of the compound with no hydroxyl group at the propyl residue [1]: 8.1 times; Initial brain inflow [1]: very rapid; [2 min]/[30 min] [1]: 7.5
2 | CNc1ccc(-c2cc3ccc(OCC(O)CF)cc3s2)cn1 (racemic) [Example 2, 2-[2-(N-monomethyl)aminopyridin-5-yl]-6-[(R/S)-3-fluoro-2-hydroxypropoxy]benzothiophene] |  |  |  |  |  | 0.49 nM | 
3 | CNc1ccc(-c2cc3ccc(OCC(O)CF)cc3s2)cc1 (racemic) [Example 1, 2-[4-(N-monomethyl)aminophenyl]-6-[(R/S)-3-fluoro-2-hydroxypropoxy]benzothiophene] |  |  |  |  |  | 1.2 nM | 
4 | CNc1cccc(-c2nc3ccc(OCC(O)C[18F])cc3s2)c1 (racemic) [Example 12, 2-[3-(N-monomethyl)aminophenyl]-6-[(R/S)-3-[^18F]fluoro-2-hydroxypropoxy]benzothiazole] | 15.7 | 2.9 | 22.6 | 25 s | 7.7 |  | 
5 | CNc1ccc(-c2nc3ccc(OCC(O)CF)cc3s2)cc1 (racemic) [Example 6, 2-[4-(N-monomethyl)aminophenyl]-6-[(R/S)-3-fluoro-2-hydroxypropoxy]benzothiazole] |  |  |  |  |  | 1.06 nM | 
6 | CNc1ccc(-c2nc3ccc(OC[C@H](O)CF)cc3s2)cn1 [Example 8, 2-[2-(N-monomethyl)aminopyridin-5-yl]-6-[(S)-3-fluoro-2-hydroxypropoxy]benzothiazole] |  |  |  |  |  | 0.16 nM | 
7 | CNc1ccc(-c2cc3ccc(OCC(O)CF)cc3s2)nn1 (racemic) [Example 5, 2-[3-(N-monomethyl)aminopyridazin-6-yl]-6-[(R/S)-3-fluoro-2-hydroxypropoxy]benzothiophene] |  |  |  |  |  | 0.42 nM | 
8 | CNc1ccc(-c2cc3ccc(OCCC[18F])cc3s2)cc1 [Control, 2-(4-(N-monomethyl)aminophenyl)-6-(3-[^18F]fluoropropoxy)benzothiophene, reference compound] | 2.02 | 2.18 |  |  |  |  | Initial brain inflow [1]: very low; [2 min]/[30 min] [1]: 0.93; [2 min]/[30 min] ([1]; listed as 2-[4-(N-monomethyl)aminophenyl]-6-β-[^18F]fluoropropoxy)benzothiophene): less than or equal to 1
9 | CNc1ccc(-c2nc3ccc(OCC(O)C[18F])cc3s2)cn1 (racemic) [Example 13, 2-[2-(N-monomethyl)aminopyridin-5-yl]-6-[(R/S)-3-[^18F]fluoro-2-hydroxypropoxy]benzothiazole] | 6.5 | 1.0 | 11.1 | 45 s | 10.8 |  | 
